According to patent publication US20220251163A1 (Sinopep-Allsino Biopharmaceutical Co., Ltd., priority 2019, published 2022):
Like-named read-outs stand apart in the source and are kept apart here. *1 amine or outer side, *2 acyl side, *3 side chain or, on linkers, in order; H or OH if unused. Where a SMILES comes first, the peptide text is derived from it. Side-chain parts run from the residue outwards. The star is where a group is joined. C18 diacid = O=C(O)CCCCCCCCCCCCCCCCC(=O)*; γGlu = O=C(O)[C@H](CCC(=O)[*:2])N[*:1]; AEEA = NCCOCCOCC(=O)O

Assays:
[1] = molecular target: T1, mGLP-1R (Mus musculus, UniProt O35659); assay: GLP-1R agonist activity, cAMP in transfected HEK293 cells; assay type: cell-based
T1 construct: expressed in transfected cells; host or cells: HEK293
T1 sequence (O35659 22-463): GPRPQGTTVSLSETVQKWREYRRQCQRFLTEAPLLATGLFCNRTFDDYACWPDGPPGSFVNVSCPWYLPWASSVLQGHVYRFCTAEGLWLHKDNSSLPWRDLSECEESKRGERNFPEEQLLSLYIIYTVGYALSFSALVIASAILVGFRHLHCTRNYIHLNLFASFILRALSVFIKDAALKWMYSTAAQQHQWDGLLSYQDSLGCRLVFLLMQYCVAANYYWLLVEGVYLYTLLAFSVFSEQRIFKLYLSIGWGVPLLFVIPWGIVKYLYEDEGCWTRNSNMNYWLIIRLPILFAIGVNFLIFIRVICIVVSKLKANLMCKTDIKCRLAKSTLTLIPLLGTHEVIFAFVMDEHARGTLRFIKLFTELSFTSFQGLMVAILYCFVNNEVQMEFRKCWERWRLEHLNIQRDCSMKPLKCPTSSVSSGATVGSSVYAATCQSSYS
Protocol: HEK293 cells were co-transfected with cDNA encoding GLP-1R or GIPR. In a test for determining the compound, the cells were inoculated in a 96-well plate 2 h in advance, the polypeptide compound was dissolved with DMSO, and diluted to different multiples with a culture medium containing 0.1% bovine serum albumin and added to the co-transfected cells. After the cells were incubated for 20 min, fluorescence values were determined through microplate reader of an ELISA kit of the Cisbo Company, a standard curve was established to convert the fluorescence values into corresponding cAMP values, and the EC50 value of the compound was calculated through nonlinear regression of Graphpad Prism 5.0 software.

[2] = molecular target: T2, mGIPR (Mus musculus, UniProt Q0P543); assay: GIPR agonist activity, cAMP in transfected HEK293 cells; assay type: cell-based; conditions: HEK293 cells transfected with GIPR, cAMP, 20 min incubation; read-out: mGIPR EC50
T2 construct: expressed in transfected cells; host or cells: HEK293
T2 sequence (Q0P543 19-460): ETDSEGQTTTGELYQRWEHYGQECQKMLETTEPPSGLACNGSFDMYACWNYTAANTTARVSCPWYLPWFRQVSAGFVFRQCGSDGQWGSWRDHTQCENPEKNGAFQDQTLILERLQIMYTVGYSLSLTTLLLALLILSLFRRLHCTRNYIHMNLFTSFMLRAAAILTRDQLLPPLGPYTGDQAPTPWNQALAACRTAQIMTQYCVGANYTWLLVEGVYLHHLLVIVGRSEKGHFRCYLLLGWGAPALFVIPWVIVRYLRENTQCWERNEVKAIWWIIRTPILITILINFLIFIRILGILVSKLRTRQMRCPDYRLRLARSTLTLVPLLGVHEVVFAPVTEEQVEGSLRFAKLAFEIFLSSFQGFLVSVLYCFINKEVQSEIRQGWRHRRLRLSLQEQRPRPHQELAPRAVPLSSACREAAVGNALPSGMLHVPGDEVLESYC
Protocol: HEK293 cells were co-transfected with cDNA encoding GLP-1R or GIPR. In a test for determining the compound, the cells were inoculated in a 96-well plate 2 h in advance, the polypeptide compound was dissolved with DMSO, and diluted to different multiples with a culture medium containing 0.1% bovine serum albumin and added to the co-transfected cells.

[3] = Effect on random weight of ob/ob mice after single subcutaneous injection; assay type: in vivo; conditions: 100 μg/kg single s.c., X ± s, n = 7
Protocol: The mice in each group received random blood glucose value measurement before (0 h) administration and 2, 4, 6, 10 and 24 h after administration, and then the time for measuring the random blood glucose was adjusted and prolonged to 34, 48, 58 or 72 h after administration according to the blood glucose condition of the mice in each group. Meanwhile, the random weight of the mice in each group before (0 h) administration and 24 h after administration was weighed, and then the random weight of the mice corresponding to the random blood glucose measurement condition 48 or 72 h after administration was weighed.

[4] = test system: ob/ob mice; assay: Blood glucose reducing experiment, single subcutaneous injection in ob/ob mice; assay type: in vivo; conditions: 100 μg/kg single s.c.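 Further: random blood glucose read at each time point, decrease rate given as percentage fall versus the model control group.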
Protocol: The mice in each group received random blood glucose value measurement before (0 h) administration and 2, 4, 6, 10 and 24 h after administration, and then the time for measuring the random blood glucose was adjusted and prolonged to 34, 48, 58 or 72 h after administration according to the blood glucose condition of the mice in each group. Meanwhile, the random weight of the mice in each group before (0 h) administration and 24 h after administration was weighed, and then the random weight of the mice corresponding to the random blood glucose measurement condition 48 or 72 h after administration was weighed. The blood glucose decrease rate, the blood glucose curve area (AUC0-24 h Glu) within 24 h after administration and the decrease rate were calculated according to the following formula.
Blood glucose decrease rate=(blood glucose in the model control group−blood glucose in the administration group)/blood glucose in the model control group×100%
BG0, BG2, BG4, BG6, BG10 and BG24 represented the blood glucose values before administration (0 h) and 2, 4, 6, 10 and 24 h after administration respectively.
AUC0-24 h Glu(mmol/Lh·r) decrease rate=(model control group AUC0-24 h Glu−administration group AUC0-24 h Glu/model control group AUC0-24 h Glu×100%
Experiments were carried out twice, at an interval of 8-10 days.

[5] = HEK293 cells transfected with GLP-1R, cAMP, 20 min incubation, read-out: mGLP-1R EC50

CCCCCCCCCCCCCCCC(=O)N[C@@H](CCC(=O)NCCCC[C@H](NC(=O)[C@H](CCC(N)=O)NC(=O)[C@H](C)NC(=O)[C@@H](NC(=O)[C@H](CCCCN)NC(=O)[C@H](CC(=O)O)NC(=O)[C@H](CC(C)C)NC(=O)C1(NC(=O)[C@@H](NC(=O)[C@H](CO)NC(=O)[C@H](Cc2ccc(O)cc2)NC(=O)[C@H](CC(=O)O)NC(=O)[C@H](CO)NC(=O)[C@@H](NC(=O)[C@H](Cc2ccccc2)NC(=O)[C@@H](NC(=O)CNC(=O)[C@H](CCC(=O)O)NC(=O)C(C)(C)NC(=O)[C@@H](N)Cc2ccc(O)cc2)[C@@H](C)O)[C@@H](C)O)[C@@H](C)CC)CCC1)[C@@H](C)CC)C(=O)N[C@@H](C)C(=O)N[C@@H](Cc1ccccc1)C(=O)N[C@H](C(=O)N[C@@H](CCC(N)=O)C(=O)N[C@@H](Cc1c[nH]c2ccccc12)C(=O)N[C@@H](CC(C)C)C(=O)N[C@H](C(=O)N[C@@H](C)C(=O)NCC(=O)NCC(=O)N1CCC[C@H]1C(=O)N[C@@H](CO)C(=O)N[C@@H](CO)C(=O)NCC(=O)N[C@@H](C)C(=O)N1CCC[C@H]1C(=O)N1CCC[C@H]1C(=O)N1CCC[C@H]1C(=O)N[C@@H](CO)C(N)=O)[C@@H](C)CC)C(C)C)C(=O)O [ID NO: 19]
EC50 [1, 5]: 0.0119 nM
EC50 [2]: 0.00791 nM

CCCCCCCCCCCCCCCC(=O)N[C@@H](CCC(=O)NCCCC[C@H](NC(=O)[C@H](CCC(N)=O)NC(=O)[C@H](C)NC(=O)[C@@H](NC(=O)[C@H](CCCCN)NC(=O)[C@H](CC(=O)O)NC(=O)[C@H](CC(C)C)NC(=O)C1(NC(=O)[C@@H](NC(=O)[C@H](CO)NC(=O)[C@H](Cc2ccc(O)cc2)NC(=O)[C@H](CC(=O)O)NC(=O)[C@H](CO)NC(=O)[C@@H](NC(=O)[C@H](Cc2ccccc2)NC(=O)[C@@H](NC(=O)CNC(=O)[C@H](CCC(=O)O)NC(=O)C(C)(C)NC(=O)[C@@H](N)Cc2ccc(O)cc2)[C@@H](C)O)[C@@H](C)O)[C@@H](C)CC)CCCC1)[C@@H](C)CC)C(=O)N[C@@H](C)C(=O)N[C@@H](Cc1ccccc1)C(=O)N[C@H](C(=O)N[C@@H](CCC(N)=O)C(=O)N[C@@H](Cc1c[nH]c2ccccc12)C(=O)N[C@@H](CC(C)C)C(=O)N[C@H](C(=O)N[C@@H](C)C(=O)NCC(=O)NCC(=O)N1CCC[C@H]1C(=O)N[C@@H](CO)C(=O)N[C@@H](CO)C(=O)NCC(=O)N[C@@H](C)C(=O)N1CCC[C@H]1C(=O)N1CCC[C@H]1C(=O)N1CCC[C@H]1C(=O)N[C@@H](CO)C(N)=O)[C@@H](C)CC)C(C)C)C(=O)O [ID NO: 21]
EC50 [1, 5]: 0.0178 nM
EC50 [2]: 0.00807 nM

CCCCCCCCCCCCCCCC(=O)N[C@@H](CCC(=O)NCCCC[C@H](NC(=O)[C@H](CCC(N)=O)NC(=O)[C@H](C)NC(=O)[C@@H](NC(=O)[C@H](CCCCN)NC(=O)[C@H](CC(=O)O)NC(=O)[C@H](CC(C)C)NC(=O)[C@H](C)NC(=O)[C@@H](NC(=O)[C@H](CO)NC(=O)[C@H](Cc1ccc(O)cc1)NC(=O)[C@H](CC(=O)O)NC(=O)[C@H](CO)NC(=O)[C@@H](NC(=O)[C@H](Cc1ccccc1)NC(=O)[C@@H](NC(=O)CNC(=O)[C@H](CCC(=O)O)NC(=O)[C@H](C)NC(=O)[C@@H](N)Cc1ccc(O)cc1)[C@@H](C)O)[C@@H](C)O)[C@@H](C)CC)[C@@H](C)CC)C(=O)N[C@@H](C)C(=O)N[C@@H](Cc1ccccc1)C(=O)N[C@H](C(=O)N[C@@H](CCC(N)=O)C(=O)N[C@@H](Cc1c[nH]c2ccccc12)C(=O)N[C@@H](CC(C)C)C(=O)N[C@H](C(=O)N[C@@H](C)C(=O)NCC(=O)NCC(=O)N1CCC[C@H]1C(=O)N[C@@H](CO)C(=O)N[C@@H](CO)C(=O)NCC(=O)N[C@@H](C)C(=O)N1CCC[C@H]1C(=O)N1CCC[C@H]1C(=O)N1CCC[C@H]1C(=O)N[C@@H](CO)C(N)=O)[C@@H](C)CC)C(C)C)C(=O)O [ID NO: 15]
EC50 [1, 5]: 0.0429 nM
EC50 [2]: 0.0532 nM

CC[C@H](C)[C@H](NC(=O)[C@H](CC(C)C)NC(=O)[C@H](Cc1c[nH]c2ccccc12)NC(=O)[C@H](CCC(N)=O)NC(=O)[C@@H](NC(=O)[C@H](Cc1ccccc1)NC(=O)[C@H](C)NC(=O)[C@H](CCCCNC(=O)COCCOCCNC(=O)COCCOCCNC(=O)CC[C@H](NC(=O)CCCCCCCCCCCCCCCCC(=O)O)C(=O)O)NC(=O)[C@H](CCC(N)=O)NC(=O)[C@H](C)NC(=O)[C@@H](NC(=O)[C@H](CCCCN)NC(=O)[C@H](CC(=O)O)NC(=O)[C@H](CC(C)C)NC(=O)C1(NC(=O)[C@@H](NC(=O)[C@H](CO)NC(=O)[C@H](Cc2ccc(O)cc2)NC(=O)[C@H](CC(=O)O)NC(=O)[C@H](CO)NC(=O)[C@@H](NC(=O)[C@H](Cc2ccccc2)NC(=O)[C@@H](NC(=O)CNC(=O)[C@H](CCC(=O)O)NC(=O)C(C)(C)NC(=O)[C@@H](N)Cc2ccc(O)cc2)[C@@H](C)O)[C@@H](C)O)[C@@H](C)CC)CCCC1)[C@@H](C)CC)C(C)C)C(=O)N[C@@H](C)C(=O)NCC(=O)NCC(=O)N1CCC[C@H]1C(=O)N[C@@H](CO)C(=O)N[C@@H](CO)C(=O)NCC(=O)N[C@@H](C)C(=O)N1CCC[C@H]1C(=O)N1CCC[C@H]1C(=O)N1CCC[C@H]1C(=O)N[C@@H](CO)C(N)=O [ID NO: 10]
EC50 [1, 5]: 0.00889 nM
EC50 [2]: 0.00811 nM

CC[C@H](C)[C@H](NC(=O)[C@H](CC(C)C)NC(=O)[C@H](Cc1c[nH]c2ccccc12)NC(=O)[C@H](CCC(N)=O)NC(=O)[C@@H](NC(=O)[C@H](Cc1ccccc1)NC(=O)[C@H](C)NC(=O)[C@H](CCCCNC(=O)COCCOCCNC(=O)COCCOCCNC(=O)CC[C@H](NC(=O)CCCCCCCCCCCCCCCCC(=O)O)C(=O)O)NC(=O)[C@H](CCC(N)=O)NC(=O)[C@H](C)NC(=O)[C@@H](NC(=O)[C@H](CCCCN)NC(=O)[C@H](CC(=O)O)NC(=O)[C@H](CC(C)C)NC(=O)[C@@H](NC(=O)[C@@H](NC(=O)[C@H](CO)NC(=O)[C@H](Cc1ccc(O)cc1)NC(=O)[C@H](CC(=O)O)NC(=O)[C@H](CO)NC(=O)[C@@H](NC(=O)[C@H](Cc1ccccc1)NC(=O)[C@@H](NC(=O)CNC(=O)[C@H](CCC(=O)O)NC(=O)[C@@H](NC(=O)[C@@H](N)Cc1ccc(O)cc1)C(C)C)[C@@H](C)O)[C@@H](C)O)[C@@H](C)CC)C(C)C)[C@@H](C)CC)C(C)C)C(=O)N[C@@H](C)C(=O)NCC(=O)NCC(=O)N1CCC[C@H]1C(=O)N[C@@H](CO)C(=O)N[C@@H](CO)C(=O)NCC(=O)N[C@@H](C)C(=O)N1CCC[C@H]1C(=O)N1CCC[C@H]1C(=O)N1CCC[C@H]1C(=O)N[C@@H](CO)C(N)=O [ID NO: 1] (H-YVEGTFTSDYSIVLDKIAQK([AEEA-AEEA-γGlu-C18 diacid])AFVQWLIAGGPSSGAPPPS-NH2)
Changes of random body weight at different time after administration, 0 h ([3]; 0 h): 0.0 ± 0.0 g
Random body weight at different time after administration, 0 h ([3]; 0 h): 43.2 ± 0.5 g
Changes of random body weight at different time after administration, 24 h ([3]; 24 h): -1.1 ± 0.2 g
Random body weight at different time after administration, 24 h ([3]; 24 h): 42.0 ± 0.5 g
Changes of random body weight at different time after administration, 48 h ([3]; 48 h): -0.6 ± 0.1 g
Random body weight at different time after administration, 48 h ([3]; 48 h): 42.7 ± 0.6 g
EC50 [1]: 0.0146 nM
Blood glucose at different time after administration, 0 h ([4]; 0 h (before administration), X ± s, n = 7): 20.31 ± 0.99 mmol/L
Decrease rate of blood glucose at different time after administration, 2 h ([4]; 2 h): 50.2%
Blood glucose at different time after administration, 2 h ([4]; 2 h, X ± s, n = 7): 10.12 ± 0.87 mmol/L
Decrease rate of blood glucose at different time after administration, 4 h ([4]; 4 h): 51.1%
Blood glucose at different time after administration, 4 h ([4]; 4 h, X ± s, n = 7): 9.94 ± 0.86 mmol/L
Decrease rate of blood glucose at different time after administration, 6 h ([4]; 6 h): 51.6%
Blood glucose at different time after administration, 6 h ([4]; 6 h, X ± s, n = 7): 9.83 ± 0.87 mmol/L
Decrease rate of blood glucose at different time after administration, 10 h ([4]; 10 h): 47.0%
Blood glucose at different time after administration, 10 h ([4]; 10 h, X ± s, n = 7): 10.76 ± 1.12 mmol/L
Decrease rate of blood glucose at different time after administration, 24 h ([4]; 24 h): 41.5%
Blood glucose at different time after administration, 24 h ([4]; 24 h, X ± s, n = 7): 11.89 ± 2.12 mmol/L
Decrease rate of blood glucose at different time after administration, 34 h ([4]; 34 h): 31.4%
Blood glucose at different time after administration, 34 h ([4]; 34 h, X ± s, n = 7): 13.93 ± 1.01 mmol/L
Decrease rate of blood glucose at different time after administration, 48 h ([4]; 48 h): 14.7%
AUC0-24 h Glu ([4]; blood glucose curve area within 24 h, X ± s, n = 7): 269.99 ± 19.45 mmol·h/L
AUC0-24 h Glu Decrease rate ([4]; versus model control group): 47.1%
